Data as given in patent publication US20220000840A1, “PHARMACEUTICAL COMPOSITION AND PREPARATION METHOD THEREFOR” (priority 2015, published 2022).

Legend:
[1] = Stability of NL-101 intermediate/diluted solution (before lyophilization) at room temperature (25±2°C), HPLC; type: physicochemical; conditions: for Purity: intermediate solution per Example 2 of CN103826630A, room temperature (25 ± 2° C.)
Method: (§1) Northlake Biosciences LLC submitted an application WO2013010286A2 on Sep. 14, 2012, and its Chinese family patent is CN103826630A. Chinese family patent application CN103826630A uses acetic acid to dissolve NL-101 and use cyclodextrin inclusion technology to prepare lyophilized powder for injection to improve the safety of NL-101. However, the prepared NL-101 lyophilized powder for injection, such as Example 2, although claimed to be chemically stable at −20° C., 4° C. and room temperature for at least 2 weeks, in fact, the inventors of the present application have verified that the results are still far from satisfying the clinical application requirements of drugs. Although it can be stable for 2-3 weeks at −20° C. and 4° C., it is only stable for several days at room temperature. […] Especially when placed only 5 days in the condition of high temperature accelerated test at 40° C., more than 15% of NL-101 was degraded. The specific stability test results are shown in Table 1, Table 2, and Table 3 below.
The diluted solutions prepared according to the formulations 1-15, 1-1, 2-1, 3-1 and according to Example 2 of CN103826630A were left to stand for 2 hours at room temperature (25±2° C.) and the stability of each diluted solution was tested by high performance liquid chromatography.
The diluted solutions prepared according to the formulations 16-29 and according to Example 2 of CN103826630A were left to stand for 2 hours at room temperature (25±2° C.) and the stability of each diluted solution was tested by high performance liquid chromatography.
Three batches of diluted solutions were taken and placed at room temperature (25±2° C.) for different periods of time. The stability of each diluted solution was tested by high performance liquid chromatography.

[2] = Storage stability of NL-101 lyophilized preparation (room temperature, 4°C, -20°C); type: physicochemical; conditions: for time stable: verified by the inventors; for Purity: lyophilized preparation per Example 2 of CN103826630A, room temperature (25 ± 2° C.)
Method: as §1
According to the accelerated test results at 40° C., it is presumed that under the condition of storage, transportation and sales at room temperature (25±2° C.), it can remain stable for at least 2 years and fully meet the needs of clinical use.

[3] = Accelerated test of NL-101 lyophilized preparation at 40°C, HPLC / HPLC-MS; type: physicochemical; conditions: for Purity: lyophilized preparation per Example 2 of CN103826630A, accelerated test at 40° C.
Method: as §1
The NL-101 lyophilized preparation for injection prepared according to the formulation 4 was taken and subjected to an accelerated test at 40° C., and the stability was tested by high performance liquid chromatography.
The NL-101 lyophilized preparation for injection prepared according to the formulations 16 and 22 were taken and subjected to an accelerated test at 40° C., and the accelerated test samples were test by high performance liquid chromatography in connection with mass spectrometry.
The above three batches of lyophilized powder for injection were taken and subjected to accelerated experiments at 40° C. The contents and total impurities were measured at 0, 1, 3, and 6 months, respectively.

[4] = Stability of NL-101 reconstituted solution (5 mg/mL) at room temperature (25±2°C); type: physicochemical; conditions: CN103826630A Example 2 lyophilized preparation
Excerpt: In the process of investigating the NL-101 lyophilized preparation, the inventors unexpectedly discovered that reconstitution of the NL-101 lyophilized preparation with different solvents has a great influence on the stability of NL-101. For example, the lyophilized preparation prepared in Example 2 of CN103826630A was reconstituted with water for injection and physiological saline, respectively, and the purity of NL-101 in the reconstituted solution was examined at different time points.
Since the NL-101 lyophilized powder for injection prepared in Example 2 of CN103826630A contains sodium ions, it is speculated that the stability of NL-101 is increased by chlorine ions in sodium chloride. In order to confirm this, we conducted a stability investigation by reconstituting the lyophilized preparation prepared in Example 2 of CN103826630A in a potassium chloride solution having the same molar concentration as physiological saline.

[5] = Solubility and chemical stability of NL-101 drug substance; type: physicochemical
[6] = lyophilized powder for injection of CN103826630A Example 2, at −20° C., 4° C. and room temperature, as claimed in CN103826630A; cited from earlier work
[7] = intravenous injection of prior-art injection (NL-101 dissolved with acetic acid, diluted with water for injection), animal; cited from earlier work

In the case of `Cn1c(CCCCCCC(=O)NO)nc2cc(N(CCCl)CCCl)ccc21` [NL-101, 7-[5-[bis(chloroethyl)-amino]-1-methylbenzimidazol-2-yl]-N-hydroxyl-heptamide], the NL-101 degraded ([1]; intermediate solution before lyophilization per Example 2 of CN103826630A, in the dark at room temperature for 4 hours) is reported as “more than 15%”, the Purity ([1]; 0 h) is reported as 94.05% and the Purity ([1]; 2 h) is reported as 88.06%. The Purity ([1]; 4 h) was 78.22%, the time stable ([2]; lyophilized powder for injection of CN103826630A Example 2, at room temperature) was “several days” and the time stable ([2]; lyophilized powder for injection of CN103826630A Example 2, at −20° C. and 4° C.) was 2-3 weeks. For the same compound, the “degradation of NL-101” value ([2]; lyophilized powder for injection of CN103826630A Example 2, room temperature for 1 month) was “degraded severely”, the Purity ([2]; day 0) was 90.23% and the Purity ([2]; day 5) was 85.16%. For the same compound, the Purity ([2]; day 15) was 77.31%, the Purity ([2]; day 30) was 70.55% and the NL-101 degraded ([3]; lyophilized powder for injection of CN103826630A Example 2, 5 days in accelerated test at 40° C.) was “more than 15%”. The Purity ([3]; day 0) was 90.23%, the Purity ([3]; day 5) was 72.31% and the “purity of NL-101 reconstituted with potassium chloride injection” value (“purity … with potassium chloride injection” below) ([4]; 0 h) was 91.28%. For the same compound, the “purity of NL-101 reconstituted with sodium chloride injection” value (shortened to “purity … with sodium chloride injection”) ([4]; 0 h) was 91.88%, the “purity of NL-101 reconstituted with water for injection” value (from here on “purity … for injection”) ([4]; 0 h) was 90.23% and the “purity … with potassium chloride injection” value ([4]; 2 h) was 86.25%. The “purity … with sodium chloride injection” value ([4]; 2 h) was 87.05%, the “purity … for injection” value ([4]; 2 h) was 80.06% and the “purity … with potassium chloride injection” value ([4]; 4 h) was 81.93%. The “purity … with sodium chloride injection” value ([4]; 4 h) was 80.23%, the “purity … for injection” value ([4]; 4 h) was 71.08% and the “purity … with potassium chloride injection” value ([4]; 6 h) was 83.56%. The “purity … with sodium chloride injection” value ([4]; 6 h) was 78.33%, the “purity … for injection” value ([4]; 6 h) was 59.36% and the solubility ([5]; in acetic acid) was “easily soluble”. For the same compound, the stability ([5]; in aqueous solution) was “unstable”, the stability ([5]; in case of strong acid, strong alkali, strong oxidant and light) was “easily degraded” and the solubility ([5]; in ethanol) was “very slightly soluble”. For the same compound, the solubility ([5]; in methanol) was “slightly soluble”, the stability ([5]; in methanol and acetic acid solution) was “relatively stable” and the solubility ([5]; in water) was “insoluble”. For the same compound, the “time claimed to be chemically stable” value [6] was “at least 2 weeks”, the mortality rate [7] was “high” and the toxicity [7] was “highly toxic”. The vascular irritation [7] was “large”.
